Reference: US8642799B2, “Cysteine protease inhibitors for the treatment of parasitic diseases” (Merck Canada Inc., priority 2007, dated 2014)

target: cruzipain (Trypanosoma cruzi, UniProt P25779); assay: biochemical; details: 50 pM cruzipain, pH 5.5, 15 minutes preincubation, 2 μM Z-Phe-Arg-AMC substrate
Method: The assay solutions were mixed and incubated for 15 minutes at room temperature prior to the addition of 2 μM of Z-Phe-Arg-AMC substrate. […] Percent of inhibition were calculated by fitting experimental values to standard mathematical model for dose response curve.

cruzipain, sequence (P25779 123-467): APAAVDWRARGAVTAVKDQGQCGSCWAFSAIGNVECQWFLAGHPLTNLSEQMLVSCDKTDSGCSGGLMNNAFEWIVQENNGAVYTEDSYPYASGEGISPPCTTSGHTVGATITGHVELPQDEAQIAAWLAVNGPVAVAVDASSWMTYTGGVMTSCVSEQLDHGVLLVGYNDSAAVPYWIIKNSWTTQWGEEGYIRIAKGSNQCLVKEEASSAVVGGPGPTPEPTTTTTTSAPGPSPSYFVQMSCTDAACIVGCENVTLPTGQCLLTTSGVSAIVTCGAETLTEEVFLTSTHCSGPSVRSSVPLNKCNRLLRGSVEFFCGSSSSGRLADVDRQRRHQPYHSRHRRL

Row | SMILES | IC50 [nM]
1 | CS(=O)(=O)c1ccc(-c2ccc([C@H](N[C@H](C(=O)N[C@H](C#N)Cc3ccc(C#N)cc3F)C3CC3)C(F)(F)F)cc2)cc1 [Example 68, (S)-N-[(S)-Cyano-(4-cyano-2-fluoro-benzyl)-methyl]-2-cyclopropyl-2-[(S)-2,2,2-trifluoro-1-(4′-methanesulfonyl-biphenyl-4-yl)-ethylamino]-acetamide] | 4.4
2 | C=CCNC(=O)C1(c2ccc(-c3ccc([C@H](N[C@@H](CC(C)(C)F)C(=O)N[C@H](C#N)Cc4ccccc4)C(F)(F)F)cc3)cc2)CC1 [Example 57, 1-[4′-((S)-1-{(S)-1-[((S)-Benzyl-cyano-methyl)-carbamoyl]-3-fluoro-3-methyl-butylamino}-2,2,2-trifluoro-ethyl)-biphenyl-4-yl]-cyclopropanecarboxylic acid allylamide] | 4.3
3 | CC(C)(F)C[C@H](N[C@@H](c1ccc(Br)cc1)C(F)(F)F)C(=O)N[C@H](C#N)Cc1ccc(C#N)cc1F [Example 44, (S)-2-[(S)-1-(4-Bromo-phenyl)-2,2,2-trifluoro-ethylamino]-4-fluoro-4-methyl-pentanoic acid [(S)-1-cyano-2-(4-cyano-2-fluoro-phenyl)-ethyl]-amide] | 9.4
4 | CC(C)(F)C[C@H](N[C@@H](c1ccc(-c2ccc(S(C)(=O)=O)cc2)cc1)C(F)(F)F)C(=O)N[C@H](C#N)Cc1ccc(C(F)(F)F)cc1F [Example 46, (S)-4-Fluoro-4-methyl-2-[(S)-2,2,2-trifluoro-1-(4′-methanesulfonyl-biphenyl-4-yl)-ethylamino]-pentanoic acid [(S)-cyano-(2-fluoro-4-trifluoromethyl-benzyl)-methyl]-amide] | 1.5
5 | C[S+]([O-])c1ccc(-c2ccc([C@H](N[C@@H](CC(C)(C)F)C(=O)N[C@H](C#N)Cc3ccc(C#N)cc3F)C(F)(F)F)cc2)cc1 (stereo partly drawn) [Example 25, (S)-4-Fluoro-4-methyl-2-[(S)-2,2,2-trifluoro-1-(4′-methanesulfinyl-biphenyl-4-yl)-ethylamino]-pentanoic acid [(S)-1-cyano-2-(4-cyano-2-fluoro-phenyl)-ethyl]-amide] | 0.75
6 | CC(C)[C@H](N[C@@H](c1ccc(-c2ccc(C3(C(=O)O)CC3)cc2)cc1)C(F)(F)F)C(=O)N[C@H](C#N)Cc1ccc(C#N)cc1F [Example 58, 1-{4′-[(S)-1-((S)-1-{[(S)-Cyano-(4-cyano-2-fluoro-benzyl)-methyl]-carbamoyl}-2-methyl-propylamino)-2,2,2-trifluoro-ethyl]-biphenyl-4-yl}-cyclopropanecarboxylic acid] | 0.3
7 | CC(C)[C@H](N[C@@H](c1ccc(-c2ccc([C@@H](O)C(F)F)cc2)cc1)C(F)(F)F)C(=O)N[C@H](C#N)Cc1c(F)cc(Br)cc1F [Example 71, (S)-N-[(S)-(4-Bromo-2,6-difluoro-benzyl)-cyano-methyl]-2-{(S)-1-[4′-((R)-2,2-difluoro-1-hydroxy-ethyl)-biphenyl-4-yl]-2,2,2-trifluoro-ethylamino}-3-methyl-butyramide] | 2.1
8 | CC(C)(F)C[C@H](N[C@@H](c1ccc(-c2ccc(C3(C(=O)NCC(F)(F)F)CC3)cc2)cc1)C(F)(F)F)C(=O)N[C@H](C#N)Cc1ccccc1 [Example 54, 1-[4′-((S)-1-{(S)-1-[((S)-Benzyl-cyano-methyl)-carbamoyl]-3-fluoro-3-methyl-butylamino}-2,2,2-trifluoro-ethyl)-biphenyl-4-yl]-cyclopropanecarboxylic acid (2,2,2-trifluoro-ethyl)-amide] | 9.4
9 | CC(C)(F)C[C@H](N[C@@H](c1ccc(-c2ccc(-c3cc[n+]([O-])cc3)cc2)cc1)C(F)(F)F)C(=O)N[C@H](C#N)Cc1ccccc1 [Example 45, (S)-4-Fluoro-4-methyl-2-{(S)-2,2,2-trifluoro-1-[4′-(1-oxy-pyridin-4-yl)-biphenyl-4-yl]-ethylamino}-pentanoic acid ((S)-1-cyano-2-phenyl-ethyl)-amide] | 7.8
10 | CC(C)[C@H](N[C@@H](c1ccc(Br)cc1)C(F)(F)F)C(=O)N[C@H](C#N)Cc1ccccc1 [Example 40, (S)-2-[(S)-1-(4-Bromo-phenyl)-2,2,2-trifluoro-ethylamino]-N-((S)-1-cyano-2-phenyl-ethyl)-3-methyl-butyramide] | 10.5
11 | CC(C)(F)C[C@H](N[C@@H](c1ccc(-c2ccc(C3(C#N)CC3)cc2)cc1)C(F)(F)F)C(=O)N[C@H](C#N)Cc1ccccc1 [Example 27, (S)-2-{(S)-1-[4′-(1-Cyano-cyclopropyl)-biphenyl-4-yl]-2,2,2-trifluoro-ethylamino}-4-fluoro-4-methyl-pentanoic acid ((S)-1-cyano-2-phenyl-ethyl)-amide] | 10.4
12 | COC(=O)CNC(=O)C1(c2ccc(-c3ccc([C@H](N[C@@H](CC(C)(C)F)C(=O)N[C@H](C#N)Cc4ccccc4)C(F)(F)F)cc3)cc2)CC1 [Example 53, ({1-[4′-((S)-1-{(S)-1-[((S)-Benzyl-cyano-methyl)-carbamoyl]-3-fluoro-3-methyl-butylamino}-2,2,2-trifluoro-ethyl)-biphenyl-4-yl]-cyclopropanecarbonyl}-amino)-acetic acid methyl ester] | 3.1
13 | CC(C)[C@H](N[C@@H](c1ccc(-c2ccc(C3(C(=O)NCCO)CC3)cc2)cc1)C(F)(F)F)C(=O)N[C@H](C#N)Cc1ccc(C#N)cc1F [Example 59, 1-{4′-[(S)-1-((S)-1-{[(S)-Cyano-(4-cyano-2-fluoro-benzyl)-methyl]-carbamoyl}-2-methyl-propylamino)-2,2,2-trifluoro-ethyl]-biphenyl-4-yl}-cyclopropanecarboxylic acid (2-hydroxy-ethyl)-amide] | 0.1
14 | CC(C)(O)Cc1ccc(-c2ccc([C@H](N[C@@H](CC(C)(C)F)C(=O)N[C@H](C#N)Cc3ccc(C#N)cc3F)C(F)(F)F)cc2)cc1 [Example 42, (S)-4-Fluoro-4-methyl-2-{(S)-2,2,2-trifluoro-1-[4′-(2-hydroxy-2-methyl-propyl)-biphenyl-4-yl]-ethylamino}-pentanoic acid [(S)-1-cyano-2-(4-cyano-2-fluoro-phenyl)-ethyl]-amide] | 0.9
15 | CC(C)(F)C[C@H](N[C@@H](c1ccc(-c2ccc(S(C)(=O)=O)cc2)cc1)C(F)(F)F)C(=O)N[C@H](C#N)Cc1ccc(-c2cccnc2)cc1 [Example 14, (S)-4-Fluoro-4-methyl-2-[(S)-2,2,2-trifluoro-1-(4′-methanesulfonyl-biphenyl-4-yl)-ethylamino]-pentanoic acid [(S)-1-cyano-2-(4-pyridin-3-yl-phenyl)-ethyl]-amide] | 7
16 | CC(C)[C@H](N[C@@H](c1ccc(-c2ccc(S(C)(=O)=O)cc2)cc1)C(F)(F)F)C(=O)N[C@H](C#N)Cc1c(F)cc(Br)cc1F [Example 70, (S)-N-[(S)-(4-Bromo-2,6-difluoro-benzyl)-cyano-methyl]-3-methyl-2-[(S)-2,2,2-trifluoro-1-(4′-methanesulfonyl-biphenyl-4-yl)-ethylamino]-butyramide] | 0.6
17 | CC(C)[C@H](N[C@@H](c1ccc(-c2ccc(C3(C(N)=O)CC3)cc2)cc1)C(F)(F)F)C(=O)N[C@H](C#N)Cc1ccccc1 [Example 48, 1-[4′-((S)-1-{(S)-1-[((S)-Benzyl-cyano-methyl)-carbamoyl]-2-methyl-propylamino}-2,2,2-trifluoro-ethyl)-biphenyl-4-yl]-cyclopropanecarboxylic acid amide] | 0.7
18 | CC(C)(F)C[C@H](N[C@@H](c1ccc(-c2ccc(S(C)(=O)=O)cc2)cc1)C(F)(F)F)C(=O)N[C@H](C#N)Cc1ccc[n+]([O-])c1 [Example 74, (S)-4-Fluoro-4-methyl-2-[(S)-2,2,2-trifluoro-1-(4′-methanesulfonyl-biphenyl-4-yl)-ethylamino]-pentanoic acid [(S)-cyano-(1-oxy-pyridin-3-ylmethyl)-methyl]-amide] | 39
19 | CC(C)[C@H](N[C@@H](c1ccc(-c2ccncc2)cc1)C(F)(F)F)C(=O)N[C@H](C#N)Cc1ccccc1 [Example 49, (S)-N-((S)-Benzyl-cyano-methyl)-3-methyl-2-[(S)-2,2,2-trifluoro-1-(4-pyridin-4-yl-phenyl)-ethylamino]-butyramide] | 5.6
20 | CC(C)(F)C[C@H](N[C@@H](c1ccc(-c2ccc(S(C)(=O)=O)cc2)cc1)C(F)(F)F)C(=O)N[C@H](C#N)Cc1ccc(C(F)(F)F)cc1 [Example 19, (S)-4-Fluoro-4-methyl-2-[(S)-2,2,2-trifluoro-1-(4′-methanesulfonyl-biphenyl-4-yl)-ethylamino]-pentanoic acid [(S)-1-cyano-2-(4-trifluoromethyl-phenyl)-ethyl]-amide] | 12.4
